Experimental data reported in ChEMBL document CHEMBL1201862, “PubChem BioAssay data set” (2004).
Calls of active or inactive are those of the source.

How the values were obtained:
cells = type: functional
[1] = biological target: T1, Short transient receptor potential channel 4 (Mus musculus, UniProt Q9QUQ5); test: mouse TRPC4 channel inhibitors, dose response, cell-based, HEK293 TRPC4/mu-opioid, Fluo-4 calcium (AID 434942); type: functional;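 note: potency of inhibitors blocking the TRPC4 calcium response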
T1 sequence (Q9QUQ5 whole entry): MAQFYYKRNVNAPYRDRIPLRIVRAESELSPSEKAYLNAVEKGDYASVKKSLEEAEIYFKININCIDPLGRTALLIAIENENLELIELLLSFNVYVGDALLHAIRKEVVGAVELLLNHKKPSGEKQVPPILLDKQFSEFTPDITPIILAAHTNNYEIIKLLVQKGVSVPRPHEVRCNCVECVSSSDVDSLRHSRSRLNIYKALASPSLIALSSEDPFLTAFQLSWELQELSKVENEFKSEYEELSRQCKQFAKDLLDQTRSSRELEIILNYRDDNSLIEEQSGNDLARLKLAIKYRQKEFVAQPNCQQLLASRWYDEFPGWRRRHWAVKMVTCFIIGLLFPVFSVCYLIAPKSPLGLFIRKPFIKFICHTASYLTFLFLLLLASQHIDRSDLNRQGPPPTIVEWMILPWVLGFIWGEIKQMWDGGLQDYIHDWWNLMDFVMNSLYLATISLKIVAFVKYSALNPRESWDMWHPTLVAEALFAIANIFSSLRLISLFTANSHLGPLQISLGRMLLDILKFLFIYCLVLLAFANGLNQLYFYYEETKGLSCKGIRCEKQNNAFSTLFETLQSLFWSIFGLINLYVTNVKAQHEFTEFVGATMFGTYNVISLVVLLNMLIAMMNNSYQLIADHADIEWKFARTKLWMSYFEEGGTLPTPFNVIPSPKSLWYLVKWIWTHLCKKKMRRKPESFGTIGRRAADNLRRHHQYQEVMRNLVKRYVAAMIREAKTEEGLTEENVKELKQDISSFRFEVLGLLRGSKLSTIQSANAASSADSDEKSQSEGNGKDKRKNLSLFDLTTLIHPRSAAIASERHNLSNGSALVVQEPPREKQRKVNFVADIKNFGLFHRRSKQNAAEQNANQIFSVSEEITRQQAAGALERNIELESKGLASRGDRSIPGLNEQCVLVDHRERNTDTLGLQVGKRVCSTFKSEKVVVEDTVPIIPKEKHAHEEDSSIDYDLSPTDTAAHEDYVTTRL

[2] = Vero E6 cell cytotoxicity, dose response, cytotoxicity control for non-replicating M. tuberculosis project, secondary assay (AID 492998); type: functional, VeroE6; settings: Vero C1008
[3] = THP-1 cell cytotoxicity, dose response, cytotoxicity control for non-replicating M. tuberculosis project (AID 489025); type: functional
[4] = HepG2 cell cytotoxicity, dose response, cytotoxicity control for non-replicating M. tuberculosis project (AID 489018); type: functional; settings: Mycobacterium tuberculosis
Cytochrome P450 2C9 = Cytochrome P450 2C9 (Homo sapiens, UniProt P11712)
Sequence of Cytochrome P450 2C9 (P11712 whole entry): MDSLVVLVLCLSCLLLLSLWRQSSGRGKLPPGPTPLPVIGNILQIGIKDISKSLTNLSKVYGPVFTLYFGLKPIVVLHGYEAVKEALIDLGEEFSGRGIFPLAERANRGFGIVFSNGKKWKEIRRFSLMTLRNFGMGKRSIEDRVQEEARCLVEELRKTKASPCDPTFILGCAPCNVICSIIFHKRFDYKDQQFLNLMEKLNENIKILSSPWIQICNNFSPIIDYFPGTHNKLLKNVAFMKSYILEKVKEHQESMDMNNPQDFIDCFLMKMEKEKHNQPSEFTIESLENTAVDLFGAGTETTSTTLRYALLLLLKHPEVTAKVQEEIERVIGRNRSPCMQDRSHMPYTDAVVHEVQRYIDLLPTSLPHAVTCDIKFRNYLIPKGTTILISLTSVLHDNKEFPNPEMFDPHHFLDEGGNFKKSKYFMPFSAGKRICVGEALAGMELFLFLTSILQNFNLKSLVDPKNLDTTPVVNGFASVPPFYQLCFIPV

[5] = tested on: Streptococcus sp. 'group A'; test: growth inhibition of control SK(-) GAS strain, dose response, counter-screen for streptokinase expression inhibitor project, luminescence, kanamycin, BacTiterGlo, confirmation (AID 1900); type: functional, organism-based
[6] = biological target: Heat shock protein HSP 90-alpha (Homo sapiens, UniProt P07900); type: functional, organism-based
[7] = Luminescence Cell-Based Dose Retest to Confirm Inhibitors of Cancer Stem Cells. [Related pubchem assays (depositor defined):AID2717, AID2721]; type: functional; settings: Homo sapiens
Streptococcus = test: Group A Streptococcus viability loss, dose response, counter-screen for streptokinase expression inhibitor project, luminescence, BacTiterGlo (AID 1915); type: functional, organism-based;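 note: potency for reduction of bacterial viability or growth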
Cytochrome P450 2C19 = Cytochrome P450 2C19 (Homo sapiens, UniProt P33261); test: Cytochrome panel assay with activity outcomes. Panel member name: p450-cyp2c19 Compounds with AC50 equal or less than 10 uM are considered active; type: functional; settings: read-out: AC50
Sequence of Cytochrome P450 2C19 (P33261 whole entry): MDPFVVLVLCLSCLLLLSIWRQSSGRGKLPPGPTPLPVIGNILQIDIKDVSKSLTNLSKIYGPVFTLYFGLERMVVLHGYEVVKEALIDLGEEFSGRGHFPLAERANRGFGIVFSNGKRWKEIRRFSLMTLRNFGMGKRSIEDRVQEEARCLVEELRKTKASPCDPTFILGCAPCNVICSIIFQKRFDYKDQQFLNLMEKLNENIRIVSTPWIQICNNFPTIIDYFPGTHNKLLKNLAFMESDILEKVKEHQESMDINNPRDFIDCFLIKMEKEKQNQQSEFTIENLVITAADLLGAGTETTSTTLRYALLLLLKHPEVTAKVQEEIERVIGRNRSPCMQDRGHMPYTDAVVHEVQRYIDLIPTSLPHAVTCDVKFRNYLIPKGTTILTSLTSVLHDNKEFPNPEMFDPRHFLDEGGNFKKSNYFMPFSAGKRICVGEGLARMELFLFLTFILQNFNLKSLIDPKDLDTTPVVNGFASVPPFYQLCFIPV

Cytochrome P450 3A4 = Cytochrome P450 3A4 (Homo sapiens, UniProt P08684);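 note: CYP3A4 tested as one member of a cytochrome P450 panel screen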
Sequence of Cytochrome P450 3A4 (P08684 whole entry): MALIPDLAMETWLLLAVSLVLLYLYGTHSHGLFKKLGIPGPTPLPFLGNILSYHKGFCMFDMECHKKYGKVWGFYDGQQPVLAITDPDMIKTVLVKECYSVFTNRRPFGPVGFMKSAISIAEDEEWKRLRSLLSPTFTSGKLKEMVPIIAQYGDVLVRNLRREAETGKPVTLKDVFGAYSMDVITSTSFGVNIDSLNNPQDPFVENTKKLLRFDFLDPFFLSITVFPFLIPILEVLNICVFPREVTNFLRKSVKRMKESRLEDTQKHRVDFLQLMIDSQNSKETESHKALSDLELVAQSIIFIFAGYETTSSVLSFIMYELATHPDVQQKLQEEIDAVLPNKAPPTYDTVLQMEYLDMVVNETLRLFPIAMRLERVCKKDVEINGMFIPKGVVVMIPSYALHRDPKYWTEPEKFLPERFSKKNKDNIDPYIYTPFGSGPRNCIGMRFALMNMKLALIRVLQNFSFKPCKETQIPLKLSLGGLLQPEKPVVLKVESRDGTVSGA

Vero = test: cells; type: functional; settings: Chlorocebus sabaeus
Genome polyprotein = Genome polyprotein (dengue virus type 2, UniProt P29990); test: Dengue-2 NS5 methyltransferase inhibitors, primary screen, biochemical, confirmation dose response (AID 588689); type: functional
Sequence of Genome polyprotein (P29990 2492-3391 limits assumed): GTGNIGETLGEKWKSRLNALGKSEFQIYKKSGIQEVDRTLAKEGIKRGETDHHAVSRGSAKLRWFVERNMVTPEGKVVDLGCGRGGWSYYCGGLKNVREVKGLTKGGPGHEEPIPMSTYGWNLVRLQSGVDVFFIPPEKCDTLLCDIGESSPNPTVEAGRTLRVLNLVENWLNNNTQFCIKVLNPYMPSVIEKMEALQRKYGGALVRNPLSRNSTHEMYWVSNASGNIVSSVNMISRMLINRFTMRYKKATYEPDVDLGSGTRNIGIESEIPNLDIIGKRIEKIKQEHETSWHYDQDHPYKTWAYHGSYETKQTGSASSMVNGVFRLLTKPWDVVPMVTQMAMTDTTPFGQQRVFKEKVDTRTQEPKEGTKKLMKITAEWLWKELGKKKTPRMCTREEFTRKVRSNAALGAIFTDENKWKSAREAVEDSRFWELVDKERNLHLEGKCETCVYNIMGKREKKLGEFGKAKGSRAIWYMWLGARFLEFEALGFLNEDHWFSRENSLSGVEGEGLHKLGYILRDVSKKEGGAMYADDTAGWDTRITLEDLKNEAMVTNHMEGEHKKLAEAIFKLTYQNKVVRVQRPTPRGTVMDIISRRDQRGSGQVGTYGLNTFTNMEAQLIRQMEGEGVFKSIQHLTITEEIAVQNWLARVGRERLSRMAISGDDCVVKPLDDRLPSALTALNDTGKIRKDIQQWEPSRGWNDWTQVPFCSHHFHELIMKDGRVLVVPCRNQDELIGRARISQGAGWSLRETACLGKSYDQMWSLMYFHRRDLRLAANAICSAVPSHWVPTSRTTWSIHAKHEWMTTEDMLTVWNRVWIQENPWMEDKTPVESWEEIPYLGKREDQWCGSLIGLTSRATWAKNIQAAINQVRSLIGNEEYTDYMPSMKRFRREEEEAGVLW

[8] = biological target: FAD-linked sulfhydryl oxidase ALR (Homo sapiens, UniProt P55789); test: inhibitors of human ALR sulfhydryl oxidase, dose response, biochemical, H2O2 detection, luminescence, cherry-pick (AID 493248)
Sequence of FAD-linked sulfhydryl oxidase ALR (P55789 whole entry): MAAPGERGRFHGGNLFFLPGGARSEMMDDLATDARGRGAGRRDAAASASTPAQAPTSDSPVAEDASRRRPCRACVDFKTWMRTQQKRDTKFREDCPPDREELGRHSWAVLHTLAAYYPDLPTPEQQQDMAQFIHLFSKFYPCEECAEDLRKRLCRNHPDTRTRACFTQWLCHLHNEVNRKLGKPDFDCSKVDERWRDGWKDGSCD

Streptokinase A = biological target: T2, Streptokinase A (Streptococcus pyogenes serotype M1, UniProt P10520); test: S. pyogenes streptokinase expression inhibitors, potency, dose response, plasminogen activation absorbance, OD405 (AID 1914); type: functional, Streptococcus pyogenes M1 GAS;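 note: secreted streptokinase activity via plasminogen activation per viability signal from cell pellet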
T2 sequence (P10520 whole entry): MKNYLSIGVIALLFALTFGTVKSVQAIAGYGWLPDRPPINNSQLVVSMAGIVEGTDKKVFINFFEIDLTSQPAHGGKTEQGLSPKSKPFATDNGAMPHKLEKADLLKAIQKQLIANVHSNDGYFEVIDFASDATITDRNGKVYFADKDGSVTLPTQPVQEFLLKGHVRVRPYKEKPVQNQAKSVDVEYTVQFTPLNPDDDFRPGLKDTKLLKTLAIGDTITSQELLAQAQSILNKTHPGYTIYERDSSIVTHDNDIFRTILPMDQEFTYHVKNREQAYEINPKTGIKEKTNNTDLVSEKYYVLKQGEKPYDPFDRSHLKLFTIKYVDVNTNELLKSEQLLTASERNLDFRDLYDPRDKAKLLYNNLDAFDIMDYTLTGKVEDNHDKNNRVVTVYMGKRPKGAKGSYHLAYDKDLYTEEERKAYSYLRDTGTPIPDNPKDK

Fatty acid synthase [9] = biological target: T3, Fatty acid synthase (Homo sapiens, UniProt P49327); test: FAS thioesterase domain inhibitors, dose response, biochemical, kinetic fluorescence intensity (AID 624326); type: functional;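 note: rate of fluorescence rise from hydrolysis of a fluorogenic O-methyl fluorescein ester substrate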
T3 sequence (P49327 whole entry, the tested form may be a part): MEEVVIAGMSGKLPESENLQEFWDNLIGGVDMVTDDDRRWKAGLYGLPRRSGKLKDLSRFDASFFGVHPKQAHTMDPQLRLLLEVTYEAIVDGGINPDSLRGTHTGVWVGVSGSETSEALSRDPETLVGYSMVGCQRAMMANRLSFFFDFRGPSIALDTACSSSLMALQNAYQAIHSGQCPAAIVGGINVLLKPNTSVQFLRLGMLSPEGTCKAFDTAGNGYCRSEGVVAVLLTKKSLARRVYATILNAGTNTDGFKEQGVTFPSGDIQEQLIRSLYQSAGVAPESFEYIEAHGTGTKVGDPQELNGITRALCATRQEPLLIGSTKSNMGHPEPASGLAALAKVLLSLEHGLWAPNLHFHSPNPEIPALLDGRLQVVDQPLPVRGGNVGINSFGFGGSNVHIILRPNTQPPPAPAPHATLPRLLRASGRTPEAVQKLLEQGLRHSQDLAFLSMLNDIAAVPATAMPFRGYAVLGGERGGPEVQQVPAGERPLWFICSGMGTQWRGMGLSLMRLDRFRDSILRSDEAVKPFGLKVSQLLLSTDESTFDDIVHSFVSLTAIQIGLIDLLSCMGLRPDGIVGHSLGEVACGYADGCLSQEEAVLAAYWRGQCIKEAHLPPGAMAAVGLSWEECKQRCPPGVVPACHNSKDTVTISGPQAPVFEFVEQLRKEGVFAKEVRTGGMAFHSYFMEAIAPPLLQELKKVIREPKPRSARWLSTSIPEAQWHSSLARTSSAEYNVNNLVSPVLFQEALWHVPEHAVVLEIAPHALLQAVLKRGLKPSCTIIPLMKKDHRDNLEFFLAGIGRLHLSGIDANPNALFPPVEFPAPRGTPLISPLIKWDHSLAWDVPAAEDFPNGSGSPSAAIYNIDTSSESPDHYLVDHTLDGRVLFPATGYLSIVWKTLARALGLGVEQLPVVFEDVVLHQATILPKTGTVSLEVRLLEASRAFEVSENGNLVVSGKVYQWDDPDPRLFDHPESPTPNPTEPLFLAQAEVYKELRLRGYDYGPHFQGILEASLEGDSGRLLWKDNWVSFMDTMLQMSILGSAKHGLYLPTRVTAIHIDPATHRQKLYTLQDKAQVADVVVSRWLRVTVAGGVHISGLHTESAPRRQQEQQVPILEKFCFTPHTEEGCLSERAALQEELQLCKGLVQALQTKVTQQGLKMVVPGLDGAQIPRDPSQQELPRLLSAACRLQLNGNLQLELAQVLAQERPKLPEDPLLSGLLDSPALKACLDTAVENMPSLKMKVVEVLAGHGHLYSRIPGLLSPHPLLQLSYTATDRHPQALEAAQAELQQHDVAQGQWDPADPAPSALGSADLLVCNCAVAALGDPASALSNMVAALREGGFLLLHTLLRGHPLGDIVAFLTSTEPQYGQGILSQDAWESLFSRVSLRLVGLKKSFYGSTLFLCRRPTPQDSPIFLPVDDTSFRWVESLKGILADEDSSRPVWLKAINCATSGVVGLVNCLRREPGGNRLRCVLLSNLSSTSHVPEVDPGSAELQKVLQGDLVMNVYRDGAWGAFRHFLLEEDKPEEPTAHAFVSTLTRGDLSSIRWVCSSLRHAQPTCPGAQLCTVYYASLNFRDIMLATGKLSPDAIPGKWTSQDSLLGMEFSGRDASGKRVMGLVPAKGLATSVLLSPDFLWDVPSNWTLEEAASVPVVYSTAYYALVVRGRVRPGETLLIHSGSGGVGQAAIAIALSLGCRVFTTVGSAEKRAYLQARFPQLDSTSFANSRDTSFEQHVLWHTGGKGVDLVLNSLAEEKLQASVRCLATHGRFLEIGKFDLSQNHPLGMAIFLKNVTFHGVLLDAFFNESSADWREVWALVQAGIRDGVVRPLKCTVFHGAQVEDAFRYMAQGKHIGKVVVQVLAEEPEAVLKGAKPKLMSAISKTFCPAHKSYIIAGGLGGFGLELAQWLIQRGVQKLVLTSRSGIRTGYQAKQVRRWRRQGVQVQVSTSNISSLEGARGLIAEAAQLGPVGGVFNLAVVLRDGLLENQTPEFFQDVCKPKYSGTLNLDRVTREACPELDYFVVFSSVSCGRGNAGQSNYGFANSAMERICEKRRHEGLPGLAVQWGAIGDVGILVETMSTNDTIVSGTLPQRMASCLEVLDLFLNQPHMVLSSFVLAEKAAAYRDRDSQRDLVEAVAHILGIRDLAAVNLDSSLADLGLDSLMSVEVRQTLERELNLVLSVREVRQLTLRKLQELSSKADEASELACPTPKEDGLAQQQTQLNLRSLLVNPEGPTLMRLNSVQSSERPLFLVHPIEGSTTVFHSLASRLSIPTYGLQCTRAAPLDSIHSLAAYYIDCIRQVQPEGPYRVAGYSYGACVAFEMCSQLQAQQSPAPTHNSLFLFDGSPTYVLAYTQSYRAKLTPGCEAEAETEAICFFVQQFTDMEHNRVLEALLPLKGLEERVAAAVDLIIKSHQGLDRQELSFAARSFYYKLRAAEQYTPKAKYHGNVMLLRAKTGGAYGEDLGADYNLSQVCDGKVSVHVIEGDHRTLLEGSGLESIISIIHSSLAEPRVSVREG

Fatty acid synthase [10] = biological target: T3, Fatty acid synthase; test: FAS thioesterase domain inhibitors, dose response, biochemical, endpoint fluorescence intensity, uHTS hits (AID 624327); type: functional;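 note: fluorescence from hydrolysis of an O-methyl fluorescein acyl ester substrate by the enzyme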
[11] = biological target: T4, Ubiquitin-conjugating enzyme E2 N (Homo sapiens, UniProt P61088); type: functional;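 note: Dose-response confirmation in a TR-FRET assay detecting UBC13-driven polyubiquitin chain formation, inhibition measured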
T4 sequence (P61088 whole entry): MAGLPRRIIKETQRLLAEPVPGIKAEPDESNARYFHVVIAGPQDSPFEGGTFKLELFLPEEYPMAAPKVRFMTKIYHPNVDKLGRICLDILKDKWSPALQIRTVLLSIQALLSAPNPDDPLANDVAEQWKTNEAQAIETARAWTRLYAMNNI

[12] = biological target: T5, DNA repair protein RAD52 homolog (Homo sapiens, UniProt P43351); type: functional, biochemical
T5 sequence (P43351 whole entry): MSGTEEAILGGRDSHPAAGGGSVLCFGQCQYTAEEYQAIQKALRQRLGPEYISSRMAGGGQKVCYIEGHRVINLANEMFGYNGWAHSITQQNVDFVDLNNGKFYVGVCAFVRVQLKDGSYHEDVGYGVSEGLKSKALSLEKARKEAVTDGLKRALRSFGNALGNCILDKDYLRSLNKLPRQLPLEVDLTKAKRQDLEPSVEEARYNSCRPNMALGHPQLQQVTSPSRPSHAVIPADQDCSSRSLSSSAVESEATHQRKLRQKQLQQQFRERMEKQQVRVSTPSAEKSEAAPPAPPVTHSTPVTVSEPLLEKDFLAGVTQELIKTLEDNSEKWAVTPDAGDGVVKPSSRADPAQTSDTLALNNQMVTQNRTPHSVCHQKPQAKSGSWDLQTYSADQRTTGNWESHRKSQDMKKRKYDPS

[13] = biological target: T6, High affinity choline transporter 1 (Homo sapiens, UniProt Q9GZV3); test: CHT inhibitors, dose response, cell-based, 5-point CRC, membrane potential dye (AID 504840); type: functional
T6 sequence (Q9GZV3 whole entry): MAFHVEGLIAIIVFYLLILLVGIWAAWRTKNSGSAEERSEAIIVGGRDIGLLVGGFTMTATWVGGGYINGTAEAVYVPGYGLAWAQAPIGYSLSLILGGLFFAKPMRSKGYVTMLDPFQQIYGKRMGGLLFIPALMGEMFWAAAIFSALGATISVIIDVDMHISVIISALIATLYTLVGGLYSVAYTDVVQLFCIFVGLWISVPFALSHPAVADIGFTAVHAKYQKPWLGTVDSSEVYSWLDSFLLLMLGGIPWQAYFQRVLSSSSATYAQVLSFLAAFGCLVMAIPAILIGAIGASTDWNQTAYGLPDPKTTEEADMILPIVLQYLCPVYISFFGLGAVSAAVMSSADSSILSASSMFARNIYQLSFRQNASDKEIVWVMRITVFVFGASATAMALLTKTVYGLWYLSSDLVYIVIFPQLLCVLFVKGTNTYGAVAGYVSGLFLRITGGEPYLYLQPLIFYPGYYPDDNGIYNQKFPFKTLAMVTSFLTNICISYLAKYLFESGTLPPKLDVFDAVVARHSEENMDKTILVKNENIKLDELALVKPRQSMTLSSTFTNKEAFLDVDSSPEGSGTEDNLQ

CCOC(=O)C1(CCc2ccccc2)CCN(Cc2ccccn2)CC1
IC50 (cells): 3.96 µM (active) | EC50 [1]: 4.22 µM (active)

CC(C)Sc1nc2sc3c(c2c2nnc(SCC(=O)NCc4ccco4)n12)CCCC3
EC50 [1]: 3.76 µM (active)

COc1ccc(C(=O)Oc2c(CN3CCOCC3)cc(Cl)c3cccnc23)cc1OC
CC50 [2]: 8.82 µM (active) | CC50 [3]: 12.2 µM (active) | IC50 (cells): 34.6 µM (active) | CC50 [4]: 15 µM (active)

Cn1ncc2c(Nc3cccc(Cl)c3)nc(Nc3cccc(Cl)c3)nc21
AC50 (Cytochrome P450 2C9): 7.94 µM (inconclusive) | EC50 [5]: 2.68 µM (active) | AC50 [6]: 4.31 µM (active) | AC50 [7]: 2.88 µM (active) | EC50 (Streptococcus): 2.92 µM (active) | AC50 (Cytochrome P450 2C19): 3.16 µM (inconclusive) | AC50 (Cytochrome P450 3A4): 6.31 µM (inconclusive)

Cc1ccc(OCC(=O)NNC(=S)NC(=O)c2ccc(Br)o2)c(C)c1
EC50 [5]: < 0.06 µM (active) | CC50 (Vero): > 25 µM (active) | EC50 (Streptococcus): 1.33 µM (active) | EC50 [1]: 13.3 µM (active)

COc1ccc(S(=O)(=O)NC2CC3CCC2C3)cc1Br (stereo not drawn)
AC50 [6]: 5.25 µM (active)

COc1ccccc1N1C(=O)NC(=O)/C(=C/c2ccc3c(c2)Cc2ccccc2-3)C1=O
IC50 (Genome polyprotein): 59.4 µM (active)

CN1C(=O)/C(=C/c2cccc([N+](=O)[O-])c2)C(=O)N1c1ccccc1
IC50 (Genome polyprotein): 26.3 µM (active) | AC50 [8]: 0.533 µM (active)

Oc1c2c(nc3c(-c4ccc(Cl)cc4)cnn13)CCC2
EC50 (Streptokinase A): > 150 µM (not active) | EC50 [5]: 4.33 µM (active) | CC50 [2]: 10.7 µM (active) | CC50 [3]: 5.23 µM (active) | EC50 (Streptococcus): 12.3 µM (active) | IC50 (cells): 12.2 µM (active) | CC50 [4]: 12.7 µM (active)

Cc1ccc(S(=O)(=O)c2cnc(-c3ccccc3)nc2N2CCN(C)CC2)cc1
EC50 [1]: 6.68 µM (active)

O=C1Nc2ccc(F)cc2C12Nc1ccccc1-c1nnc(SCc3ccccc3)nc1O2 (stereo not drawn)
IC50 (Genome polyprotein): 46.2 µM (active)

O=C(COC(=O)CC1CC2CCC1C2)Nc1cc([N+](=O)[O-])ccc1F (stereo not drawn)
IC50 (Fatty acid synthase [9]): 3.72 µM (active) | IC50 (Fatty acid synthase [10]): 4.15 µM (active)

CCN1CCN(CCNC(=O)c2ccc3nc(-c4cccc(C)c4)c(-c4cccc(C)c4)nc3c2)CC1
IC50 [11]: > 20 µM (inactive) | AC50 [12]: 13.5 µM (active) | IC50 [13]: 3.76 µM (active)

CCc1nc2ccccc2n1Cc1ccccc1OC
EC50 [1]: 10.6 µM (active)

Cc1cccc(-c2cc3nc(C)c(C)c(NCCCn4ccnc4)n3n2)c1
CC50 [2]: > 20 µM (active) | CC50 [3]: 20.6 µM (active) | IC50 (cells): 9.68 µM (active) | CC50 [4]: 16.4 µM (active)

Cc1ccccc1[N+]1=C2CCCCN2C(O)(c2cccs2)C1 (stereo not drawn)
EC50 [1]: 2.37 µM (active)

O=C(CC1C[C@H](C(=O)N2CCOCC2)[C@@]2(CCC3CCCC3)c3[nH]c4ccccc4c3CCN2C1=O)NCCC1=CCCCC1 (stereo partly drawn)
IC50 (Fatty acid synthase [9]): 35.1 µM (inactive) | IC50 (Fatty acid synthase [10]): 22.2 µM (inactive)

Cc1ccc(C(=O)CN(CCC(=O)O)S(=O)(=O)c2ccc([N+](=O)[O-])cc2)cc1
IC50 (Fatty acid synthase [9]): 3.55 µM (active) | IC50 (Fatty acid synthase [10]): 5.88 µM (active)

O=C(CCC(=O)Nc1cccc(Cl)c1)N/N=C/c1cc([N+](=O)[O-])ccc1O
IC50 (Fatty acid synthase [9]): 5.71 µM (active) | IC50 (Fatty acid synthase [10]): 4.21 µM (active)
